We go through six molecules from patent publication US8481757B2, “Compounds and compositions useful in the treatment of malaria” (Georgua Tech Research Corporation, priority 2010, dated 2013).

Read-outs that look alike come from different tables or passages of the source.

In data set [1] the test system is heme crystallization. Nature of the data set: Inhibition of heme crystallization. It is filed as biochemical. The conditions noted are these: molar equivalents of drug to heme.
In data set [2] the test system is Plasmodium falciparum parasites (3D7 strain). The conditions noted are these: from Hawley et al. (Antimicrob Agents Chemother 1998, 42: 682); cited from earlier work.
Data set [3] relates to Plasmodium falciparum HB3 (chloroquine-sensitive parasite). The conditions noted are these: from Hawley et al. (Antimicrob Agents Chemother 1998, 42: 682); cited from earlier work.
Data set [4] relates to Plasmodium falciparum parasites (3D7 strain). Nature of the data set: SYBR Green based parasite proliferation assay (antimalarial activity). The format is cell-based.
In data set [5] the test system is Plasmodium falciparum Dd2 (chloroquine-resistant parasite). Nature of the data set: Efficacy against Plasmodium falciparum Dd2. The format is cell-based.
Data set [6] concerns Plasmodium falciparum HB3 (chloroquine-sensitive parasite). Nature of the data set: Efficacy against Plasmodium falciparum HB3. It is filed as cell-based.
The nature of data set [7]: Cytotoxicity, Vero. The format is cell-based. The conditions noted are these: African green monkey, Vero cells.
Data set [8] can be described thus: Cytotoxicity, J774. It is filed as cell-based. The conditions noted are these: mouse, J774 cells.
The nature of data set [9]: Cytotoxicity, HepG2. The conditions noted are these: human, HepG2 cells. It is filed as cell-based.
Where [10] appears, read: Plasmodium falciparum, 3D7, Table 5, Example 5 numbering (1-13), read-out: P. falciparum (3D7) IC50.
The mark [11] stands for this setting: Plasmodium falciparum, 3D7, Table 1, Example 1 numbering (1-18), read-out: Antimalarial IC50.

Turning to `CCN(CC)Cc1cc(Nc2ccnc3cc(Cl)ccc23)ccc1O` [AMQ, amodiaquine], the “IC50 for heme crystallization” value in [1] is on record as 1.2 ± 0.19 equivalents. The IC50 in data set [2] is 7.8 nM; in data set [3], 8.5 nM.

With `CC1=C2Cc3cc(ccc3O)C(=O)O[C@H](C(C)(C)Br)CC[C@](C)(O)[C@H](Br)CC[C@]2(C)[C@@H](Br)CC1` [Compound 1], the IC50 in [4] (setting [10]) was found to be 650 nM; in data set [4] (Plasmodium falciparum, 3D7, chloroquine-sensitive parasite, Table 6, Example 5 numbering, read-out: 3D7 IC50) it was 658 nM; in [4] (Table 5, Example 5 numbering (1-13), read-out: P. falciparum (3D7) IC50) it was 660 nM; in data set [5], 497 nM; in [6], 565 nM; in data set [7], 34600 nM. Further, the figures for the IC50 in [8] and in data set [9] were 19000 nM and 21300 nM, respectively. Moreover, in data set [1], the “IC50 for heme crystallization” value is on record as 2.5 ± 0.13 equivalents.

Take `CC1=C2Cc3cc(ccc3O)C(=O)O[C@H](C(C)(C)Br)CC[C@](C)(O)/C=C\C[C@]2(C)C=CC1` [Compound 11]: the concentration for half-maximal inhibition (IC50) in data set [4] (setting [10]) was found to be 4600 nM.

Consider `C=C1CC[C@H](Br)[C@@]2(C)CC[C@@H]3O[C@@]3(C)CC[C@@H](C(C)(C)O)OC(=O)c3ccc(O)c(c3)C[C@H]12` [Compound 14], for which the IC50 in [4] (setting [11]) is 18000 nM.

As for `CC1=CC[C@@H]2O[C@@]2(C)CC[C@@H](C(C)(C)O)OC(=O)c2ccc(O)c(c2)CC2=C(C)CCC12` (stereo partly shown) [Compound 18], the IC50 in data set [4] (setting [11]) was > 100000 nM.

As for “debromophycolide A [Compound 18 (Example 1)]”, the IC50 in data set [4] (Table 4, Example 3 numbering (1-3), read-out: Antimalarial activity IC50) is > 100000 nM.

The term IC50 denotes the concentration needed to halve the response being measured.
